Experimental data as given in US10959432B2, “Microbiocidal oxadiazole derivatives” (Syngenta Participations AG, priority 2016, dated 2021).

Columns and labels:
[1] = system: Puccinia recondita f. sp. tritici; assay: Fungicidal activity against Puccinia recondita f. sp. tritici / wheat / leaf disc preventative (brown rust); assay type: in vivo; conditions: foliar, 200 ppm in the applied formulation, wheat leaf segments cv. Kanzler, preventative (inoculated 1 day after application), assessed 7 to 9 days after application, read-out: disease control compared to untreated control leaf disks
Experimental: (§1) Leaf disks or leaf segments of various plant species are cut from plants grown in a greenhouse. The cut leaf disks or segments are placed in multiwell plates (24-well format) onto water agar. The leaf disks are sprayed with a test solution before (preventative) or after (curative) inoculation. Compounds to be tested are prepared as DMSO solutions (max. 10 mg/ml) which are diluted to the appropriate concentration with 0.025% Tween20 just before spraying. The inoculated leaf disks or segments are incubated under defined conditions (temperature, relative humidity, light, etc.) according to the respective test system. A single evaluation of disease level is carried out 3 to 14 days after inoculation, depending on the pathosystem. Percent disease control relative to the untreated check leaf disks or segments is then calculated. General Examples of Liquid Culture Tests in Well Plates:
Example 1: Fungicidal Activity Against Puccinia recondita f. sp. tritici/Wheat/Leaf Disc Preventative (Brown Rust)
Wheat leaf segments cv. Kanzler were placed on agar in multiwell plates (24-well format) and sprayed with the formulated test compound diluted in water. The leaf disks were inoculated with a spore suspension of the fungus 1 day after application. The inoculated leaf segments were incubated at 19C and 75% relative humidity (rh) under a light regime of 12 hours light/12 hours darkness in a climate cabinet and the activity of a compound was assessed as percent disease control compared to untreated when an appropriate level of disease damage appears in untreated check leaf segments (7 to 9 days after application).
(§2) The following compounds at 200 ppm in the applied formulation give at least 80% disease control in this test when compared to untreated control leaf disks under the same conditions, which show extensive disease development.

[2] = system: Puccinia recondita f. sp. tritici; assay: Fungicidal activity against Puccinia recondita f. sp. tritici / wheat / leaf disc curative (brown rust); assay type: in vivo; conditions: foliar, 200 ppm in the applied formulation, wheat leaf segments cv. Kanzler, curative (applied 1 day after inoculation), assessed 6 to 8 days after application, read-out: disease control compared to untreated control leaf disks
Experimental: as §1
Example 2: Fungicidal Activity Against Puccinia recondita f. sp. Tritici/Wheat/Leaf Disc Curative (Brown Rust)
Wheat leaf segments cv. Kanzler are placed on agar in multiwell plates (24-well format). The leaf segments are then inoculated with a spore suspension of the fungus. Plates were stored in darkness at 19° C. and 75% relative humidity. The formulated test compound diluted in water was applied 1 day after inoculation. The leaf segments were incubated at 19° C. and 75% relative humidity under a light regime of 12 hours light/12 hours darkness in a climate cabinet and the activity of a compound was assessed as percent disease control compared to untreated when an appropriate level of disease damage appears in untreated check leaf segments (6 to 8 days after application).
as §2

Phakopsora pachyrhizi = assay: Fungicidal activity against Phakopsora pachyrhizi / soybean / leaf disc preventative (Asian soybean rust); assay type: in vivo; conditions: foliar, 200 ppm in the applied formulation, soybean leaf disks, preventative (inoculated one day after application), assessed 12 to 14 days after application, read-out: disease control compared to untreated control leaf disks
Experimental: as §1
Example 3: Fungicidal Activity Against Phakopsora pachyrhizi/Soybean/Leaf Disc Preventative (Asian Soybean Rust)
Soybean leaf disks are placed on water agar in multiwell plates (24-well format) and sprayed with the formulated test compound diluted in water. One day after application leaf discs are inoculated by spraying a spore suspension on the lower leaf surface. After an incubation period in a climate cabinet of 24-36 hours in darkness at 20° C. and 75% rh leaf disc are kept at 20° C. with 12 h light/day and 75% rh. The activity of a compound is assessed as percent disease control compared to untreated when an appropriate level of disease damage appears in untreated check leaf disks (12 to 14 days after application).
as §2

[3] = system: Glomerella laqenarium (Colletotrichum lagenarium); assay: Fungicidal activity against Glomerella lagenarium (Colletotrichum lagenarium) liquid culture / cucumber / preventative (anthracnose); assay type: cell-based; conditions: Colletotrichum orbiculare; 20 ppm in the applied formulation; liquid culture in PDB, 24° C., 3 to 4 days after application; read-out: disease control compared to untreated control (inhibition of growth measured photometrically)
Experimental: Mycelia fragments or conidia suspensions of a fungus prepared either freshly from liquid cultures of the fungus or from cryogenic storage, are directly mixed into nutrient broth. DMSO solutions of the test compound (max. 10 mg/ml) are diluted with 0.025% Tween20 by a factor of 50 and 10 μl of this solution is pipetted into a microtiter plate (96-well format). The nutrient broth containing the fungal spores/mycelia fragments is then added to give an end concentration of the tested compound. The test plates are incubated in the dark at 24° C. and 96% relative humidity. The inhibition of fungal growth is determined photometrically after 2 to 7 days, depending on the pathosystem, and percent antifungal activity relative to the untreated check is calculated.
Example 4: Fungicidal Activity Against Glomerella laqenarium (Colletotrichum lagenarium) Liquid Culture/Cucumber/Preventative (Anthracnose)
Conidia of the fungus from cryogenic storage are directly mixed into nutrient broth (PDB—potato dextrose broth). After placing a (DMSO) solution of test compound into a microtiter plate (96-well format), the nutrient broth containing the fungal spores is added. The test plates are incubated at 24° C. and the inhibition of growth is measured photometrically 3 to 4 days after application.
The following compounds at 20 ppm in the applied formulation give at least 80% disease control in this test when compared to untreated control under the same conditions, which show extensive disease development.

CC(=O)CC(C)(C)NC(=O)c1ccc(-c2noc(C(F)(F)F)n2)cc1F [Compound 3b.15, N-(1,1-dimethyl-3-oxo-butyl)-2-fluoro-4-[5-(trifluoromethyl)-1,2,4-oxadiazol-3-yl]benzamide]
≥ 80%: pest or weed control at 200 ppm [1] | pest or weed control at 200 ppm [2] | pest or weed control at 200 ppm (Phakopsora pachyrhizi) | inhibition at 20 ppm [3]

CC(C)(O)CNC(=O)c1ccc(-c2noc(C(F)(F)F)n2)cc1 [Compound 3a.27, N-(2-hydroxy-2-methyl-propyl)-4-[5-(trifluoromethyl)-1,2,4-oxadiazol-3-yl]benzamide]
≥ 80%: pest or weed control at 200 ppm [1] | pest or weed control at 200 ppm [2] | pest or weed control at 200 ppm (Phakopsora pachyrhizi) | inhibition at 20 ppm [3]

O=C(NCCCCCl)c1ccc(-c2noc(C(F)(F)F)n2)cc1F [Compound 3b.20, N-(4-chlorobutyl)-2-fluoro-4-[5-(trifluoromethyl)-1,2,4-oxadiazol-3-yl]benzamide]
≥ 80%: pest or weed control at 200 ppm [1] | pest or weed control at 200 ppm [2] | pest or weed control at 200 ppm (Phakopsora pachyrhizi) | inhibition at 20 ppm [3]

CCOC(C)CNC(=O)c1ccc(-c2noc(C(F)(F)F)n2)cc1 (stereo not drawn) [Compound 3a.11, N-(2-ethoxypropyl)-4-[5-(trifluoromethyl)-1,2,4-oxadiazol-3-yl]benzamide]
≥ 80%: pest or weed control at 200 ppm [1] | pest or weed control at 200 ppm [2] | pest or weed control at 200 ppm (Phakopsora pachyrhizi) | inhibition at 20 ppm [3]

O=C(NCC1CC1)c1ccc(-c2noc(C(F)(F)F)n2)cc1Cl [Compound 2b.13, 2-chloro-N-(cyclopropyl-methyl)-4-[5-(trifluoromethyl)-1,2,4-oxadiazol-3-yl]benzamide]
≥ 80%: pest or weed control at 200 ppm [1] | pest or weed control at 200 ppm [2] | pest or weed control at 200 ppm (Phakopsora pachyrhizi) | inhibition at 20 ppm [3]

COCC(C)NC(=O)c1ccc(-c2noc(C(F)(F)F)n2)cc1F (stereo not drawn) [Compound 3b.40, 2-fluoro-N-(2-methoxy-1-methyl-ethyl)-4-[5-(trifluoromethyl)-1,2,4-oxadiazol-3-yl]benzamide]
≥ 80%: pest or weed control at 200 ppm [1] | pest or weed control at 200 ppm [2] | pest or weed control at 200 ppm (Phakopsora pachyrhizi) | inhibition at 20 ppm [3]

C=CCN(CC)C(=O)c1ccc(-c2noc(C(F)(F)F)n2)cc1 [Compound 3a.28, N-allyl-N-ethyl-4-[5-(trifluoromethyl)-1,2,4-oxadiazol-3-yl]benzamide]
≥ 80%: pest or weed control at 200 ppm [1] | pest or weed control at 200 ppm [2] | pest or weed control at 200 ppm (Phakopsora pachyrhizi) | inhibition at 20 ppm [3]

CC(C)CN(C)C(=O)c1ccc(-c2noc(C(F)(F)F)n2)cc1F [Compound 3b.14, 2-fluoro-N-isobutyl-N-methyl-4-[5-(trifluoromethyl)-1,2,4-oxadiazol-3-yl]benzamide]
≥ 80%: pest or weed control at 200 ppm [1] | pest or weed control at 200 ppm [2] | pest or weed control at 200 ppm (Phakopsora pachyrhizi) | inhibition at 20 ppm [3]

CC(=O)CC(C)(C)NC(=O)c1ccc(-c2noc(C(F)(F)F)n2)cc1 [Compound 3a.16, N-(1,1-dimethyl-3-oxo-butyl)-4-[5-(trifluoromethyl)-1,2,4-oxadiazol-3-yl]benzamide]
≥ 80%: pest or weed control at 200 ppm [1] | pest or weed control at 200 ppm [2] | pest or weed control at 200 ppm (Phakopsora pachyrhizi) | inhibition at 20 ppm [3]

CC(C)OCCNC(=O)c1ccc(-c2noc(C(F)(F)F)n2)cc1F [Compound 3b.43, 2-fluoro-N-(2-isopropoxyethyl)-4-[5-(trifluoromethyl)-1,2,4-oxadiazol-3-yl]benzamide]
≥ 80%: pest or weed control at 200 ppm [1] | pest or weed control at 200 ppm [2] | pest or weed control at 200 ppm (Phakopsora pachyrhizi) | inhibition at 20 ppm [3]

CCN(C(=O)c1ccc(-c2noc(C(F)(F)F)n2)cc1)C(C)C [Compound 3a.34, N-ethyl-N-isopropyl-4-[5-(trifluoromethyl)-1,2,4-oxadiazol-3-yl]benzamide]
≥ 80%: pest or weed control at 200 ppm [1] | pest or weed control at 200 ppm [2] | pest or weed control at 200 ppm (Phakopsora pachyrhizi) | inhibition at 20 ppm [3]

CN(CCOC(F)F)C(=O)c1ccc(-c2noc(C(F)(F)F)n2)cc1 [Compound 3a.44, N-[2-(difluoromethoxy)ethyl]-N-methyl-4-[5-(trifluoromethyl)-1,2,4-oxadiazol-3-yl]benzamide]
≥ 80%: pest or weed control at 200 ppm [1] | pest or weed control at 200 ppm [2] | pest or weed control at 200 ppm (Phakopsora pachyrhizi) | inhibition at 20 ppm [3]

CC(C)(C)NC(=O)c1ccc(-c2noc(C(F)(F)F)n2)cc1 [Compound 3a.32, N-tert-butyl-4-[5-(trifluoromethyl)-1,2,4-oxadiazol-3-yl]benzamide]
≥ 80%: pest or weed control at 200 ppm [1] | pest or weed control at 200 ppm [2] | pest or weed control at 200 ppm (Phakopsora pachyrhizi) | inhibition at 20 ppm [3]

CC(C)C(CO)NC(=O)c1ccc(-c2noc(C(F)(F)F)n2)cc1 (stereo not drawn) [Compound 3a.18, N-[1-(hydroxymethyl)-2-methyl-propyl]-4-[5-(trifluoromethyl)-1,2,4-oxadiazol-3-yl]benzamide]
≥ 80%: pest or weed control at 200 ppm [2] | pest or weed control at 200 ppm (Phakopsora pachyrhizi) | inhibition at 20 ppm [3]

O=C(NCCCO)c1ccc(-c2noc(C(F)(F)F)n2)cc1F [Compound 3b.23, 2-fluoro-N-(3-hydroxypropyl)-4-[5-(trifluoromethyl)-1,2,4-oxadiazol-3-yl]benzamide]
≥ 80%: pest or weed control at 200 ppm [2] | pest or weed control at 200 ppm (Phakopsora pachyrhizi) | inhibition at 20 ppm [3]

CCCCCCNC(=O)c1ccc(-c2noc(C(F)(F)F)n2)cc1F [Compound 3b.31, 2-fluoro-N-hexyl-4-[5-(trifluoromethyl)-1,2,4-oxadiazol-3-yl]benzamide]
≥ 80%: pest or weed control at 200 ppm [2] | pest or weed control at 200 ppm (Phakopsora pachyrhizi) | inhibition at 20 ppm [3]

CN(C(=O)c1ccc(-c2noc(C(F)(F)F)n2)cc1)c1ccccn1 [Compound 5a.4, N-methyl-N-(2-pyridyl)-4-[5-(trifluoromethyl)-1,2,4-oxadiazol-3-yl]benzamide]
≥ 80%: pest or weed control at 200 ppm [2] | pest or weed control at 200 ppm (Phakopsora pachyrhizi) | inhibition at 20 ppm [3]

CC(C)C(CO)NC(=O)c1ccc(-c2noc(C(F)(F)F)n2)cc1F (stereo not drawn) [Compound 3b.18, 2-fluoro-N-[1-(hydroxymethyl)-2-methyl-propyl]-4-[5-(trifluoromethyl)-1,2,4-oxadiazol-3-yl]benzamide]
≥ 80%: pest or weed control at 200 ppm [2] | inhibition at 20 ppm [3]

CCOC(=O)CC(C)NC(=O)c1ccc(-c2noc(C(F)(F)F)n2)cc1F (stereo not drawn) [Compound 3b.28, ethyl 3-[[2-fluoro-4-[5-(trifluoromethyl)-1,2,4-oxadiazol-3-yl]benzoyl]amino]butanoate]
≥ 80%: pest or weed control at 200 ppm [1] | pest or weed control at 200 ppm [2] | inhibition at 20 ppm [3]
